Values after ≈ are worked out from the molar mass of the structure shown.
Assays:
Format in all cases: functional
Staphylococcus [1] = experiment: Antimicrobial activity against Oxacillin-susceptible coagulase-negative Staphylococcus assessed as percent susceptible isolate by broth microdilution method
Streptococcus [2] = experiment: Antimicrobial activity against Beta-hemolytic Streptococcus assessed as percent resistant isolates by broth microdilution method
Staphylococcus aureus [3] = experiment: Antimicrobial activity against Oxacillin-susceptible Staphylococcus aureus by broth microdilution method
Staphylococcus [4] = experiment: Antimicrobial activity against Oxacillin-resistant coagulase-negative Staphylococcus by broth microdilution method
Staphylococcus [5] = experiment: Antimicrobial activity against Oxacillin-resistant coagulase-negative Staphylococcus assessed as percent resistant isolate by broth microdilution method
Streptococcus [6] = experiment: Antimicrobial activity against Beta-hemolytic Streptococcus by broth microdilution method
Streptococcus [7] = experiment: Antimicrobial activity against viridans group Streptococcus assessed as percent susceptible isolate by broth microdilution method
Staphylococcus aureus [8] = experiment: Antimicrobial activity against Oxacillin-resistant Staphylococcus aureus assessed as percent resistant isolate by broth microdilution method
Staphylococcus [9] = experiment: Antimicrobial activity against Oxacillin-susceptible coagulase-negative Staphylococcus by broth microdilution method
Staphylococcus [10] = experiment: Antimicrobial activity against Oxacillin-susceptible coagulase-negative Staphylococcus assessed as percent resistant isolate by broth microdilution method
Streptococcus [11] = experiment: Antimicrobial activity against viridans group Streptococcus by broth microdilution method
Staphylococcus aureus [12] = experiment: Antimicrobial activity against Oxacillin-resistant Staphylococcus aureus by broth microdilution method
Streptococcus [13] = experiment: Antimicrobial activity against viridans group Streptococcus assessed as percent resistant isolates by broth microdilution method
Streptococcus [14] = experiment: Antimicrobial activity against Beta-hemolytic Streptococcus assessed as percent susceptible isolate by broth microdilution method
Staphylococcus aureus [15] = experiment: Antimicrobial activity against Oxacillin-susceptible Staphylococcus aureus assessed as percent resistant isolates by broth microdilution method
Staphylococcus [16] = experiment: Antimicrobial activity against Oxacillin-resistant coagulase-negative Staphylococcus assessed as percent susceptible isolate by broth microdilution method
Staphylococcus aureus [17] = experiment: Antimicrobial activity against Oxacillin-susceptible Staphylococcus aureus assessed as percent susceptible isolate by broth microdilution method
Staphylococcus aureus [18] = experiment: Antimicrobial activity against Oxacillin-resistant Staphylococcus aureus assessed as percent susceptible isolate by broth microdilution method
Enterococcus faecium [19] = experiment: Antimicrobial activity against Vancomycin-susceptible Enterococcus faecium assessed as percent susceptible isolate by broth microdilution method
Enterococcus faecium [20] = experiment: Antimicrobial activity against Vancomycin-susceptible Enterococcus faecium assessed as percent resistant isolates by broth microdilution method
Enterococcus faecium [21] = experiment: Antimicrobial activity against Vancomycin-nonsusceptible Enterococcus faecium assessed as percent resistant isolates by broth microdilution method
Enterococcus faecium [22] = experiment: Antimicrobial activity against Vancomycin-susceptible Enterococcus faecium by broth microdilution method
Enterococcus faecalis [23] = experiment: Antimicrobial activity against Vancomycin-nonsusceptible Enterococcus faecalis by broth microdilution method
Enterococcus faecalis [24] = experiment: Antimicrobial activity against Vancomycin-susceptible Enterococcus faecalis assessed as percent resistant isolates by broth microdilution method
Enterococcus faecalis [25] = experiment: Antimicrobial activity against Vancomycin-nonsusceptible Enterococcus faecalis assessed as percent resistant isolates by broth microdilution method
Enterococcus faecalis [26] = experiment: Antimicrobial activity against Vancomycin-susceptible Enterococcus faecalis by broth microdilution method
Enterococcus faecalis [27] = experiment: Antimicrobial activity against Vancomycin-susceptible Enterococcus faecalis assessed as percent susceptible isolate by broth microdilution method
Enterococcus faecium [28] = experiment: Antimicrobial activity against Vancomycin-nonsusceptible Enterococcus faecium by broth microdilution method
Enterococcus faecalis [29] = experiment: Antimicrobial activity against Vancomycin-nonsusceptible Enterococcus faecalis assessed as percent susceptible isolate by broth microdilution method
Enterococcus faecium [30] = experiment: Antimicrobial activity against Vancomycin-nonsusceptible Enterococcus faecium assessed as percent susceptible isolate by broth microdilution method

Compound	Activity (Staphylococcus [1])	Activity (Streptococcus [2])	MIC50 (Staphylococcus aureus [3])	MIC90 (Staphylococcus aureus [3])	MIC90 (Staphylococcus [4])	Activity (Staphylococcus [5])	MIC50 (Streptococcus [6])	MIC90 (Streptococcus [6])	Activity (Streptococcus [7])	Activity (Staphylococcus aureus [8])	MIC50 (Staphylococcus [9])	MIC90 (Staphylococcus [9])	Activity (Staphylococcus [10])	MIC50 (Streptococcus [11])	MIC90 (Streptococcus [11])	MIC50 (Staphylococcus aureus [12])	MIC90 (Staphylococcus aureus [12])	Activity (Streptococcus [14])	Activity (Staphylococcus [16])	Activity (Staphylococcus aureus [17])	also measured
CCC[C@@H]1C[C@@H](C(=O)N[C@@H]([C@H]2O[C@H](SC)[C@H](O)[C@@H](O)[C@H]2O)[C@H](C)Cl)N(C)C1 [CLINDAMYCIN]	93.5%	19.9%	≤ 0.25 µg/mL	≤ 0.25 µg/mL	> 2 µg/mL	41.7%	0.25 µg/mL (≈ 0.588 µM)	0.25 µg/mL (≈ 0.588 µM)	89.8%	52.1%	≤ 0.25 µg/mL	≤ 0.25 µg/mL	5.7%	0.25 µg/mL (≈ 0.588 µM)	0.5 µg/mL (≈ 1.18 µM)	> 2 µg/mL	> 2 µg/mL	91.4%	57%	95.8%	MIC (Staphylococcus aureus [3]): ≤ 0.25 µg/mL; MIC (Streptococcus [6]): 0.25 µg/mL (≈ 0.588 µM); MIC (Staphylococcus [9]): ≤ 0.25 µg/mL; MIC (Streptococcus [11]): 0.25 µg/mL (≈ 0.588 µM); Activity (Streptococcus [13]): 9.5%; Activity (Staphylococcus aureus [15]): 4%; Activity (Staphylococcus aureus [18]): 47.8%
C[C@H]1COc2c(N3CCN(C)CC3)c(F)cc3c(=O)c(C(=O)O)cn1c23.C[C@H]1COc2c(N3CCN(C)CC3)c(F)cc3c(=O)c(C(=O)O)cn1c23.O [LEVOFLOXACIN]	87.5%	8.2%	≤ 0.5 µg/mL	≤ 0.5 µg/mL	> 4 µg/mL	61.4%	0.5 µg/mL	1 µg/mL	95.7%	80.1%	≤ 0.5 µg/mL	4 µg/mL	11.1%	1 µg/mL	2 µg/mL	> 4 µg/mL	> 4 µg/mL	98.6%	31.8%	92.8%	MIC (Staphylococcus aureus [3]): ≤ 0.5 µg/mL; MIC50 (Staphylococcus [4]): 4 µg/mL; MIC (Streptococcus [6]): 0.5 µg/mL; MIC (Staphylococcus [9]): ≤ 0.5 µg/mL; Activity (Streptococcus [13]): 3.6%; Activity (Staphylococcus aureus [15]): 6.7%; Activity (Staphylococcus aureus [18]): 18.3%
CC1(C)S[C@@H]2[C@H](NC(=O)[C@H](N)c3ccccc3)C(=O)N2[C@H]1C(=O)O [AMPICILLIN]	–	–	–	–	–	–	–	–	–	–	–	–	–	–	–	–	–	–	–	–	Activity (Enterococcus faecium [19]): 15.6%; Activity (Enterococcus faecium [20]): 84.4%; Activity (Enterococcus faecium [21]): 99.2%; MIC50 (Enterococcus faecium [22]): > 16 µg/mL; MIC90 (Enterococcus faecium [22]): > 16 µg/mL; MIC (Enterococcus faecalis [23]): ≤ 2 µg/mL; MIC50 (Enterococcus faecalis [23]): ≤ 2 µg/mL; MIC90 (Enterococcus faecalis [23]): 4 µg/mL (≈ 11.4 µM); Activity (Enterococcus faecalis [24]): 0.2%; Activity (Enterococcus faecalis [25]): 4%; MIC (Enterococcus faecalis [26]): ≤ 2 µg/mL; MIC50 (Enterococcus faecalis [26]): ≤ 2 µg/mL; MIC90 (Enterococcus faecalis [26]): ≤ 2 µg/mL; Activity (Enterococcus faecalis [27]): 99.6%; MIC50 (Enterococcus faecium [28]): > 16 µg/mL; MIC90 (Enterococcus faecium [28]): > 16 µg/mL; Activity (Enterococcus faecalis [29]): 96%; Activity (Enterococcus faecium [30]): 0.8%
GENTAMICIN	95%	–	< 2 µg/mL	< 2 µg/mL	> 8 µg/mL	35.3%	–	–	–	24.8%	< 2 µg/mL	< 2 µg/mL	3.1%	–	–	< 2 µg/mL	> 8 µg/mL	–	50.7%	97.1%	Activity (Enterococcus faecium [19]): 61.8%; Activity (Enterococcus faecium [20]): 38.2%; Activity (Enterococcus faecium [21]): 35.7%; MIC50 (Staphylococcus [4]): 4 µg/mL; Activity (Enterococcus faecalis [24]): 31.5%; Activity (Enterococcus faecalis [25]): 71.6%; MIC50 (Enterococcus faecalis [26]): < 500 µg/mL; MIC90 (Enterococcus faecalis [26]): > 1000 µg/mL; Activity (Enterococcus faecalis [27]): 68.5%; Activity (Enterococcus faecalis [29]): 28.4%; Activity (Enterococcus faecium [30]): 64.3%; Activity (Staphylococcus aureus [15]): 2.6%; Activity (Staphylococcus aureus [18]): 74.1%
CC(=O)NC[C@H]1CN(c2ccc(N3CCOCC3)c(F)c2)C(=O)O1 [LINEZOLID]	99.9%	1.3%	2 µg/mL (≈ 5.93 µM)	2 µg/mL (≈ 5.93 µM)	1 µg/mL (≈ 2.96 µM)	–	1 µg/mL (≈ 2.96 µM)	1 µg/mL (≈ 2.96 µM)	99.9%	0.04%	1 µg/mL (≈ 2.96 µM)	1 µg/mL (≈ 2.96 µM)	–	1 µg/mL (≈ 2.96 µM)	1 µg/mL (≈ 2.96 µM)	1 µg/mL (≈ 2.96 µM)	2 µg/mL (≈ 5.93 µM)	100%	99.5%	100%	Activity (Enterococcus faecium [19]): 99.6%; Activity (Enterococcus faecium [20]): 0.3%; Activity (Enterococcus faecium [21]): 1.8%; MIC50 (Enterococcus faecium [22]): 1 µg/mL (≈ 2.96 µM); MIC90 (Enterococcus faecium [22]): 2 µg/mL (≈ 5.93 µM); MIC50 (Staphylococcus [4]): 1 µg/mL (≈ 2.96 µM); MIC50 (Enterococcus faecalis [23]): 1 µg/mL (≈ 2.96 µM); MIC90 (Enterococcus faecalis [23]): 2 µg/mL (≈ 5.93 µM); Activity (Enterococcus faecalis [24]): 0.1%; Activity (Enterococcus faecalis [25]): 1.4%; MIC50 (Enterococcus faecalis [26]): 1 µg/mL (≈ 2.96 µM); MIC90 (Enterococcus faecalis [26]): 2 µg/mL (≈ 5.93 µM); Activity (Enterococcus faecalis [27]): 99.8%; MIC50 (Enterococcus faecium [28]): 1 µg/mL (≈ 2.96 µM); MIC90 (Enterococcus faecium [28]): 2 µg/mL (≈ 5.93 µM); Activity (Enterococcus faecalis [29]): 98.6%; Activity (Enterococcus faecium [30]): 97.6%
